In the supplement of paper PMC10307832:

Key:
Experiment in all cases: relative viability (nuclei count vs DMSO), 5 days (fraction); higher = more cells survive
ChaGo-K-1 = test system: ChaGo-K-1
Summary of the method: (§1)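 Lung cancer cell lines in 1536-well plates were dosed by pin tool the day after seeding, either with one drug alone or with a fixed anchor-drug dose plus five library-drug doses (not always all listed) in √10 steps. After 5 days, cells were fixed and their nuclei stained in one step (final 0.05% Triton X-100, 1% formaldehyde, 1 ug/ml Hoechst), then counted on 4× images. Relative viability is the nuclei count in treated wells divided by that in vehicle wells. Values are medians of duplicate plates.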

EMC-BAC-2 = test system: EMC-BAC-2
Summary of the method: as §1

LCLC-97TM1 = test system: LCLC-97TM1
Summary of the method: as §1

LXF-289 = test system: LXF-289
Summary of the method: as §1

NCI-H1395 = test system: NCI-H1395
Summary of the method: as §1

NCI-H1651 = test system: NCI-H1651
Summary of the method: as §1

NCI-H1734 = test system: NCI-H1734
Summary of the method: as §1

NCI-H1793 = test system: NCI-H1793
Summary of the method: as §1

NCI-H1915 = test system: NCI-H1915
Summary of the method: as §1

NCI-H1944 = test system: NCI-H1944
Summary of the method: as §1

NCI-H2023 = test system: NCI-H2023
Summary of the method: as §1

NCI-H2087 = test system: NCI-H2087
Summary of the method: as §1

NCI-H2126 = test system: NCI-H2126
Summary of the method: as §1

NCI-H2405 = test system: NCI-H2405
Summary of the method: as §1

NCI-H3122 = test system: NCI-H3122
Summary of the method: as §1

NCI-H322M = test system: NCI-H322M
Summary of the method: as §1

NCI-H441 = test system: NCI-H441
Summary of the method: as §1

NCI-H522 = test system: NCI-H522
Summary of the method: as §1

NCI-H596 = test system: NCI-H596
Summary of the method: as §1

NCI-H650 = test system: NCI-H650
Summary of the method: as §1

NCI-H661 = test system: NCI-H661
Summary of the method: as §1

NCI-H838 = test system: NCI-H838
Summary of the method: as §1

PC-14 = test system: PC-14
Summary of the method: as §1

SW 1573 = test system: SW 1573
Summary of the method: as §1

UMC-11 = test system: UMC-11
Summary of the method: as §1

Q: Which results are given for `Nc1cccc2c1CN(C1CCC(=O)NC1=O)C2=O` (stereo unspecified) [Lenalidomide] + COc1cccc2cc(-c3nc([C@H]4CC[C@H](C(=O)O)CC4)n4ncnc(N)c34)[nH]c12 [OSI-027] (partner 0.5 µM)?
A: relative viability (ChaGo-K-1; first compound 0.253 µM): 0.586; relative viability (ChaGo-K-1; first compound 0.8 µM): 0.441; relative viability (ChaGo-K-1; first compound 2.53 µM): 0.656; relative viability (ChaGo-K-1; first compound 8 µM): 0.548; relative viability (EMC-BAC-2; first compound 0.253 µM): 0.38; relative viability (EMC-BAC-2; first compound 0.8 µM): 0.349; relative viability (EMC-BAC-2; first compound 2.53 µM): 0.393; relative viability (EMC-BAC-2; first compound 8 µM): 0.344; relative viability (LCLC-97TM1; first compound 0.253 µM): 0.544; relative viability (LCLC-97TM1; first compound 0.8 µM): 0.454; relative viability (LCLC-97TM1; first compound 2.53 µM): 0.661; relative viability (LCLC-97TM1; first compound 8 µM): 0.563; relative viability (LXF-289; first compound 0.253 µM): 0.832; relative viability (LXF-289; first compound 0.8 µM): 0.823; relative viability (LXF-289; first compound 2.53 µM): 0.871; relative viability (LXF-289; first compound 8 µM): 0.772; relative viability (NCI-H1395; first compound 0.253 µM): 0.74; relative viability (NCI-H1395; first compound 0.8 µM): 0.501; relative viability (NCI-H1395; first compound 2.53 µM): 0.633; relative viability (NCI-H1395; first compound 8 µM): 0.601; relative viability (NCI-H1651; first compound 0.253 µM): 0.772; relative viability (NCI-H1651; first compound 0.8 µM): 0.728; relative viability (NCI-H1651; first compound 2.53 µM): 0.994; relative viability (NCI-H1651; first compound 8 µM): 0.919; relative viability (NCI-H1734; first compound 0.253 µM): 0.63; relative viability (NCI-H1734; first compound 0.8 µM): 0.712; relative viability (NCI-H1734; first compound 2.53 µM): 0.566; relative viability (NCI-H1734; first compound 8 µM): 0.608; relative viability (NCI-H1793; first compound 0.253 µM): 0.359; relative viability (NCI-H1793; first compound 2.53 µM): 0.319; relative viability (NCI-H1793; first compound 8 µM): 0.244; relative viability (NCI-H1915; first compound 0.253 µM): 0.61; relative viability (NCI-H1915; first compound 0.8 µM): 0.653; relative viability (NCI-H1915; first compound 2.53 µM): 0.646; relative viability (NCI-H1915; first compound 8 µM): 0.615; relative viability (NCI-H1944; first compound 0.253 µM): 0.412; relative viability (NCI-H1944; first compound 0.8 µM): 0.372; relative viability (NCI-H1944; first compound 2.53 µM): 0.491; relative viability (NCI-H1944; first compound 8 µM): 0.36; relative viability (NCI-H2023; first compound 0.253 µM): 0.418; relative viability (NCI-H2023; first compound 0.8 µM): 0.337; relative viability (NCI-H2023; first compound 2.53 µM): 0.545; relative viability (NCI-H2023; first compound 8 µM): 0.451; relative viability (NCI-H2087; first compound 0.253 µM): 0.679; relative viability (NCI-H2087; first compound 0.8 µM): 0.501; relative viability (NCI-H2087; first compound 2.53 µM): 0.521; relative viability (NCI-H2087; first compound 8 µM): 0.712; relative viability (NCI-H2126; first compound 0.253 µM): 0.66; relative viability (NCI-H2126; first compound 0.8 µM): 0.609; relative viability (NCI-H2126; first compound 2.53 µM): 0.663; relative viability (NCI-H2126; first compound 8 µM): 0.593; relative viability (NCI-H2405; first compound 0.253 µM): 0.586; relative viability (NCI-H2405; first compound 0.8 µM): 0.706; relative viability (NCI-H2405; first compound 2.53 µM): 0.588; relative viability (NCI-H2405; first compound 8 µM): 0.596; relative viability (NCI-H3122; first compound 0.253 µM): 0.97; relative viability (NCI-H3122; first compound 0.8 µM): 1.21; relative viability (NCI-H3122; first compound 2.53 µM): 0.914; relative viability (NCI-H3122; first compound 8 µM): 0.898; relative viability (NCI-H322M; first compound 0.253 µM): 0.53; relative viability (NCI-H322M; first compound 0.8 µM): 0.527; relative viability (NCI-H322M; first compound 2.53 µM): 0.609; relative viability (NCI-H322M; first compound 8 µM): 0.558; relative viability (NCI-H441; first compound 0.253 µM): 0.485; relative viability (NCI-H441; first compound 0.8 µM): 0.666; relative viability (NCI-H441; first compound 2.53 µM): 0.876; relative viability (NCI-H441; first compound 8 µM): 0.631; relative viability (NCI-H522; first compound 0.253 µM): 0.754; relative viability (NCI-H522; first compound 2.53 µM): 0.696; relative viability (NCI-H522; first compound 8 µM): 0.596; relative viability (NCI-H596; first compound 0.253 µM): 0.784; relative viability (NCI-H596; first compound 2.53 µM): 0.764; relative viability (NCI-H596; first compound 8 µM): 0.532; relative viability (NCI-H650; first compound 0.253 µM): 0.528; relative viability (NCI-H650; first compound 2.53 µM): 0.577; relative viability (NCI-H650; first compound 8 µM): 0.472; relative viability (NCI-H661; first compound 0.253 µM): 0.722; relative viability (NCI-H661; first compound 0.8 µM): 0.689; relative viability (NCI-H661; first compound 2.53 µM): 0.849; relative viability (NCI-H661; first compound 8 µM): 0.729; relative viability (NCI-H838; first compound 0.253 µM): 0.399; relative viability (NCI-H838; first compound 0.8 µM): 0.34; relative viability (NCI-H838; first compound 2.53 µM): 0.459; relative viability (NCI-H838; first compound 8 µM): 0.383; relative viability (PC-14; first compound 0.253 µM): 0.791; relative viability (PC-14; first compound 0.8 µM): 0.853; relative viability (PC-14; first compound 2.53 µM): 1.2; relative viability (PC-14; first compound 8 µM): 1.02; relative viability (SW 1573; first compound 0.253 µM): 0.573; relative viability (SW 1573; first compound 0.8 µM): 0.712; relative viability (SW 1573; first compound 2.53 µM): 0.792; relative viability (SW 1573; first compound 8 µM): 0.565; relative viability (UMC-11; first compound 0.253 µM): 0.456; relative viability (UMC-11; first compound 0.8 µM): 0.576; relative viability (UMC-11; first compound 2.53 µM): 0.53; relative viability (UMC-11; first compound 8 µM): 0.464
